The source of these data is US20250381207A1, “FLAVONOID-CONTAINING COMPOSITIONS AND TREATMENT OF VIRAL DISEASES WITH SAME” (priority 2024, published 2025).

In one data set the target is ACE2 (Homo sapiens, UniProt Q9BYF1). As to the kind of experiment: In vitro fluorescence ligand binding assay (relative ACE2 inhibition). The note with it: for remaining activity at 100 µM: read-out: % of control/blank fluorescence; for IC50: fluorescence binding assay, relative ACE2 inhibition. The procedure: A fluorescence ligand bind assay (Lora Benoit, Vinayak Shenoy, Simon Meykler, Ali Mohseni. SARS-COV-2 spike protein 13-mer subdomain corresponds to the drug-binding domain of glutamyl-propyl-tRNA synthetase 1 and is targetable by halofuginone, 22 Jul. 2021, PREPRINT (Version 1) available at Research Square [world wide web at doi.org/10.21203/rs.3.rs-738132/v1]) used to test the binding of various flavonoids. Fluorescence values increased over time (likely due to evaporation at 37° C.), but differences in fluorescence intensity after a kinetic read may be used to calculate relative ACE2 inhibition.
Chain of ACE2 (Q9BYF1 18-805): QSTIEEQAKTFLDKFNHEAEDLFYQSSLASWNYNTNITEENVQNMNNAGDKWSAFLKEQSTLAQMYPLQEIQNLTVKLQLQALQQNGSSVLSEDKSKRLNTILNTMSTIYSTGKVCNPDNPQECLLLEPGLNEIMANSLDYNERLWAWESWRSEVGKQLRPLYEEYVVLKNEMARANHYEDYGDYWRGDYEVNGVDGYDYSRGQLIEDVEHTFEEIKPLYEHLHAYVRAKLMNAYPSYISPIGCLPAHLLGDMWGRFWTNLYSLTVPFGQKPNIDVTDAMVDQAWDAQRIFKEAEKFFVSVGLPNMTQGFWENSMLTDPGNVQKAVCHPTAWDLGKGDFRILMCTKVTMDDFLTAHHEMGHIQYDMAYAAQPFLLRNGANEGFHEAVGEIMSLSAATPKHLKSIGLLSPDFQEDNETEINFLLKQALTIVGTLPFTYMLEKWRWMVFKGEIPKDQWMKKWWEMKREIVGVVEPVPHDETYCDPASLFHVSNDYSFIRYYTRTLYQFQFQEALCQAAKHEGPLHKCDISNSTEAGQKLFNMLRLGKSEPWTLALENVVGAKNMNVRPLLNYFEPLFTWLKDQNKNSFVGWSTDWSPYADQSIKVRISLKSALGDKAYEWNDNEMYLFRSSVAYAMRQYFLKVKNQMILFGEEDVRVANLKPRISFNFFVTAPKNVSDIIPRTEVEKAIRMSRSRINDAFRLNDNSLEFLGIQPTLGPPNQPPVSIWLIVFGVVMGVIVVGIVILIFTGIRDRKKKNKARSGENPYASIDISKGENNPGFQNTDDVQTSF

The target in another data set is T1, SARS-COV-2 spike protein (Severe acute respiratory syndrome coronavirus 2, UniProt P0DTC2).
T1 construct: Target/ligand: SARS-COV2 RBD; 4815 RU captured; purchased R&D Systems, Inc., Minneapolis, MN AVI10500
As to the kind of experiment: Surface plasmon resonance (SPR) analysis. The data set is classed as binding. The note with it: for Activity (actual) / Activity (calculated) / Rmax (actual) / Rmax (calculated): SPR, analyte 0.4-100 μM, SCK; for Rmax (actual) / Rmax (calculated): 25° C.

Where [1] appears, read: SPR FIG. 15A, 50 μM, SARS-COV2 RBD on SA chip.

Consider `COc1ccc(C[C@H](N)C(=O)N[C@H]2[C@@H](O)[C@H](n3cnc4c(N(C)C)ncnc43)O[C@@H]2CO)cc1` [Puromycin, puromycin, reference compound], for which the “Percent viable cells (%) normalized to vehicle control and puromycin” value in the data set with Calu-3 cell line (human) is reported as 0.00%.

With `C[C@@H]1O[C@@H](OC[C@H]2O[C@@H](Oc3c(-c4ccc(O)c(O)c4)oc4cc(O)cc(O)c4c3=O)[C@H](O)[C@@H](O)[C@@H]2O)[C@H](O)[C@H](O)[C@H]1O` [Rutin, rutin], on ACE2, the remaining activity at 100 µM stood at 44% and the IC50 amounted to 39.4 µM. Also, on SARS-COV-2 spike protein (SARS-COV2 RBD on SA chip), the “Activity (actual)” value is listed as 21%, the “Activity (calculated)” value is on record as 17%, the “Rmax (actual)” value was 21.0 RU and the “Rmax (calculated)” value is reported as 16.7 RU.

In the case of hesperidin, at SARS-COV-2 spike protein (setting [1]), the “Activity (50 μM)” value was found to be 98% and the “Rmax (50 μM)” value is recorded as 94.3 RU. Further, at SARS-COV-2 spike protein (SARS-COV2 RBD on SA chip), the “Activity (actual)” value came out at 72%, the “Activity (calculated)” value is 40%, the “Rmax (actual)” value is listed as 72.7 RU and the “Rmax (calculated)” value was 40.4 RU. Besides, the “SPR binding activity, in words” value at SARS-COV-2 spike protein (initial experiment, MCK mode from 10 μM) is given as “displayed binding activity with slow dissociation”. In addition, at SARS-COV-2 spike protein (summary statement of Example 1), the “activity (inhibitory effect on binding to SARS-COV-2 spike protein and ACE2)” value amounted to 82%. Also, the “viability normalized to SARS-COV-2 spike protein treatment alone and vehicle” value with Calu-3 cell line is recorded as “over 80%”.

With `COc1ccc(-c2cc(=O)c3c(OC)c(OC)c(OC)c(OC)c3o2)cc1OC` [nobiletin], on ACE2, the remaining activity at 100 µM amounted to 60% and the IC50 was found to be 26.5 µM.

As to `COc1ccc(C2CC(=O)c3c(O)cc(O)cc3O2)cc1O` (stereo not drawn) [hesperetin], the “Calu-3 viability after compound + SARS-COV-2 spike protein treatment, in words” value in the data set on Calu-3 cell line was “decrease of viability in a hesperetin concentration-dependent manner”.

Turning to `O=C1C[C@@H](c2ccc(O)cc2)Oc2cc(O)cc(O)c21` [Naringenin, naringenin], at ACE2, the remaining activity at 100 µM was 57% and the IC50 was determined as 36.2 µM.
